Reference: patent publication US20120071475A1, “UREA DERIVATIVES HAVING PI3K-INHIBITING ACTIVITY” (SHIONOGI & CO., LTD., priority 2009, published 2012)

Legend:
PI3Kγ [1] = target: T1, PI3Kγ (Homo sapiens, UniProt P48736); assay: PI3Kγ inhibitory activity (PI3-kinase HTRF assay, inhibition ratio); format: biochemical; conditions: 0.5 h, compound at 10 μmol/L; read-out: PI3Kg Inhibition Ratio % (10 μM)
In short: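 Compound at 10 μmol/L preincubated 10 min with PI3Kγ and PIP2 substrate, then reacted with ATP for 30 minutes at room temperature; the compound, substrate and ATP figures as printed (40 μmol/L each) are solution concentrations. HTRF 665/620 nm ratio read after 18 hours. Inhibition ratio calculated against no-compound (100%) and no-enzyme (0%) controls.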

AKT phosphorylation = AKT phosphorylation inhibitory activity in MCP-1 stimulated THP-1 cells (sandwich ELISA); format: cell-based, Human; conditions: Homo sapiens, compound at 1 μmol/L, MCP-1 stimulation, read-out: AKT phosphorylation inhibition ratio
Description: (1) The AKT phosphorylation inhibitory activity of a compound was evaluated according to the following procedure. (2) Human monocyte-like cell line THP-1 was washed with RPMI-1640 media, incubated in the presence of 5% CO2 at 37° C. for 3 hours, washed with Hank's balanced salt solution (HBSS), adjusted to a cell concentration of 6.7×10^6/mL, and then used in an experiment. (3) 30 μL of the cell suspension and 60 μL of each compound solution containing 0.2% DMSO/HBSS were mixed and then preincubated at 37° C. for 5 minutes. 30 μL of HBSS containing 1.2 μg/mL of MCP-1 was added thereto and then incubated for 60 seconds at 37° C. (4) 30 μL of a cell lysate (the final concentrations: 20 mmol/L Tris-HCl (pH 7.5), 150 mmol/L NaCl, 1 mmol/L EDTA, 1 mmol/L EDTA, 1% Triton X-100, 2.5 mmol/L sodium pyrophosphate, 1 mmol/L β-glycerophosphate, 1 mmol/L Na3VO4, 1 μg/ml leupeptin, 50 nmol/L APMSF) was added thereto to lyse cells. (5) The amount of AKT phosphorylation in the cell solution was measured by sandwich ELISA method using anti-Phospho-Akt (Ser473) antibody and anti-AKT1 antibody. (6) Anti-Phospho-Akt (Ser473) antibodies or anti-AKT1 antibodies were immobilized onto the solid phase of a micro well plate. The prepared cell lysate was added to the micro well plate, incubated, and then washed with ELISA wash solution. (7) An anti-AKT1 antibody or anti-Phospho-Akt (Ser473) antibody, which forms a counterpart to an antibody immobilized on the solid phase, was added thereto, incubated, washed similarly, and then reacted with an HRP-labeled anti-mouse IgG antibody. (8) After incubating for 30 minutes and then washing similarly, 100 μL of TMB (3,3′,5,5″-tetramethylbenzidine) was added thereto, followed by reacting for 30 minutes. (9) 100 μL of stop solution was added to quench the color reaction, and then the absorbance at 450 nm was measured. (10) The amount of AKT phosphorylation in a sample in the absence of a compound was defined as 100% activity, and the amount of AKT phosphorylation in a sample in the absence of MCP-1 was defined as 0% activity to calculate an inhibition ratio of each compound. The measurement was performed for a 1 μmol/L solution of each compound.

CYP3A4 = target: T2, CYP3A4 (Homo sapiens, UniProt P08684); assay: CYP3A4 fluorescence MBI test; format: in vitro ADME; conditions: difference in IC50 with 0 or 30 minutes pre-reaction; CYP3A4 expressed in E. coli, substrate 7-BFC
T2 construct: host or cells: E. coli
Description: The CYP3A4 fluorescence MBI test is a test to examine the enhancement of CYP3A4 inhibition of a compound by a metabolic reaction. The test was performed using as an index, a reaction to produce a metabolite 7-hydroxytrifluoromethylcoumarin (HFC) which emits fluorescence, in which CYP3A4 expressed in E. coli was used as an enzyme and 7-benzyloxytrifluoromethylcoumarin (7-BFC) is debenzylated by CYP3A4 enzyme.
The reaction conditions are as follows: substrate: 5.6 μmol/L 7-BFC; pre-reaction time; 0 or 30 minutes; reaction time: 15 minutes; reaction temperature: 25° C. (room temperature); content of CYP3A4 (an enzyme expressed in E. coli): […] at the time of a pre-reaction and […] (when diluted 10 times) at the time of a reaction; the concentrations of a test drug: 0.625, 1.25, 2.5, 5, 10, and 20 μmol/L (6 points).
In a 96-well plate, an enzyme solution and a test drug solution were added as a pre-reaction solution into K-Pi buffer solution (pH 7.4) in the aforementioned ratio. A portion thereof was transferred to another 96-well plate to be diluted ten times with a substrate and a K-Pi buffer solution. A coenzyme, NADPH, was then added to start a reaction, which is the index (this is without a pre-reaction). After reacting for a predetermined time, 4:1 of acetonitrile: 0.5 mol/L Tris (trishydroxyaminomethane) was added to quench the reaction. To the remaining pre-reaction solution, NADPH was added to start a pre-reaction (this is with a pre-reaction). After pre-reacting for a predetermined time, a portion thereof was transferred to another plate to be diluted ten times with a substrate and K-Pi buffer solution, and thereby the index reaction is started. After reacting for a predetermined time, 4:1 of acetonitrile:0.5 mol/L Tris (trishydroxyaminomethane) was added to quench the reaction. For each plate in which the index reaction was carried out, the fluorescence value of a metabolite 7-HFC was measured with a fluorescent plate reader (Ex=420 nm, Em=535 nm).
The case wherein only DMSO (a solvent which dissolved a drug) was added to a reaction system was defined as a control (100%). When a test drug solution was added, the remaining activity (%) at each concentration was calculated, and then IC50 was calculated with a concentration and an inhibition ratio by an inverse estimation using a logistic model. When the difference in IC50 value is 5 μmol/L or more, the compound is shown as (+). When 3 μmol/L or less, the compound is shown as (−).

[2] = Metabolic stability test (pooled human liver microsome); format: in vitro ADME; conditions: percentage of test compound remained after 30 minutes, pooled human liver microsome 0.5 mg protein/mL, 1 mmol/L NADPH, 37° C., compound 0.5 μM
Description: After a subject compound was reacted for a certain time using a pooled human liver microsome commercially available, a reacted sample and an unreacted sample are compared to calculate a survival ratio, and then the degree of metabolism in the liver was evaluated.
0.2 mL of a buffer solution (50 mmol/L of Tris-HCl in pH 7.4, 150 mmol/L of potassium chloride, and 10 mmol/L of magnesium chloride) containing a human liver microsome of 0.5 mg protein/mL was reacted in the presence of 1 mmol/L NADPH at 37° C. for 0 or 30 minutes (oxidative reaction). After reacting, 50 μL of the reaction solution was added to 100 μL of a solution of methanol/acetonitrile (1/1 (v/v)), mixed, and then centrifuged at 3000 rpm for 15 minutes. The test compound in the supernatant was quantitated with LC/MS/MS. The amount of the compound at a reaction time of 0 minute was defined as 100% and, based on that, the percentage of the test compound remained after reacting for 30 minutes was calculated.

hERG channel (IKr) = target: T3, hERG channel (IKr) (Homo sapiens, UniProt Q12809); assay: hERG test (whole-cell patch-clamp, IKr in HEK293 cells); format: cell-based; conditions: human, HEK293 cells expressing hERG channel, pH 7.4, inhibition of maximum tail current (IKr), compound 1 μM
T3 construct: expressed in transfected cells; host or cells: HEK293
Source text: For the purpose of risk evaluation of QT interval extension of electrocardiogram, the activity on delayed rectification K^+ current (IKr), which plays an important role in a cardiac ventricle repolarization process, was examined using the HEK293 cell that was made to express human ether-a-go-go related gene (hERG) channel.
Using an automatic patch-clamp system (PatchXpress 7000A, Axon Instruments Inc.), by a whole-cell patch-clamp method, after the cell was maintained at a membrane potential of −80 mV, IKr induced upon applying depolarizing stimulation of +50 mV for 2 seconds and further applying repolarizing stimulation of −50 mV for 2 seconds was recorded. After generated electric current became stable, a test substance dissolved at an intended concentration in extracellular fluid (137 mmol/L NaCl, 4 mmol/L KCl, 1.8 mmol/L CaCl2.2H2O, 1 mmol/L MgCl2.6H2O, 10 mmol/L glucose, 10 mmol/L HEPES (4-(2-hydroxyethyl)-1-piperazineethanesulfonic acid), pH=7.4) was applied to the cell for 10 minutes under room temperature condition. From the obtained IKr, the absolute value of the maximum tail current was measured using analysis software (DataXpress ver. 1, Molecular Devices Corporation) and the value of the electric current in a maintained membrane potential as baseline. Moreover, an inhibition ratio for the maximum tail current prior to the application of the test substance was calculated and then compared with a group of media-application (0.1% dimethylsulfoxide solution) to evaluate influence of the test substance on IKr.

PI3Kγ [3] = target: T1, PI3Kγ; assay: PI3Kγ inhibitory activity (Ki value); format: biochemical; conditions: read-out: PI3Kγ Ki value
Description: The PI3Kγ inhibitory activity (Ki value) of a compound was evaluated according to the following procedure:
5 μL of a compound solution containing 10% DMSO and […] of a compound was changed to 5 μL of a compound solution containing 10% DMSO and either 200, 64, 20, 6.4, 2, 0.64, or 0.20 μmol/L of the compound (optionally, this is diluted to a lower concentration). Using a method similar to the method for measuring PI3Kγ inhibitory activity, inhibition ratios of PI3Kγ were measured in the presence of the compound at 50, 16, 5, 1.6, 0.5, 0.16, and 0.05 μmol/L (optionally, a lower concentration). Then an IC50 value was calculated by a logistic approximation method or the linear regression method using two concentrations that cross 50% inhibition. Separately, the ATP concentration in the reaction solution (40 μmol/L ATP, 10 mmol/L MgCl2, 5 mmol/L DTT) at the time of the start of a reaction in the absence of the compound was changed to 80, 40, 20, 10, 5, 2.5, 1.25, or 0.625 μmol/L. Then, HTRF ratios were measured by a similar method. The value obtained by subtracting the HTRF ratio at each ATP concentration from the HTRF ratio in the absence of PI-3 kinase y was defined as the value obtained by multiplying reaction rate (v) at each ATP concentration with a constant. The Michaelis-Menten constant Km was then calculated by the Lineweaver-Burk plot method. The Ki value of a compound was calculated by the following formula wherein “μM” denotes “μmol/L.”
Ki value ═IC50 value/(1+test ATP concentration (μM)/Km (μM))

T1 sequence (P48736 whole entry, species assumed): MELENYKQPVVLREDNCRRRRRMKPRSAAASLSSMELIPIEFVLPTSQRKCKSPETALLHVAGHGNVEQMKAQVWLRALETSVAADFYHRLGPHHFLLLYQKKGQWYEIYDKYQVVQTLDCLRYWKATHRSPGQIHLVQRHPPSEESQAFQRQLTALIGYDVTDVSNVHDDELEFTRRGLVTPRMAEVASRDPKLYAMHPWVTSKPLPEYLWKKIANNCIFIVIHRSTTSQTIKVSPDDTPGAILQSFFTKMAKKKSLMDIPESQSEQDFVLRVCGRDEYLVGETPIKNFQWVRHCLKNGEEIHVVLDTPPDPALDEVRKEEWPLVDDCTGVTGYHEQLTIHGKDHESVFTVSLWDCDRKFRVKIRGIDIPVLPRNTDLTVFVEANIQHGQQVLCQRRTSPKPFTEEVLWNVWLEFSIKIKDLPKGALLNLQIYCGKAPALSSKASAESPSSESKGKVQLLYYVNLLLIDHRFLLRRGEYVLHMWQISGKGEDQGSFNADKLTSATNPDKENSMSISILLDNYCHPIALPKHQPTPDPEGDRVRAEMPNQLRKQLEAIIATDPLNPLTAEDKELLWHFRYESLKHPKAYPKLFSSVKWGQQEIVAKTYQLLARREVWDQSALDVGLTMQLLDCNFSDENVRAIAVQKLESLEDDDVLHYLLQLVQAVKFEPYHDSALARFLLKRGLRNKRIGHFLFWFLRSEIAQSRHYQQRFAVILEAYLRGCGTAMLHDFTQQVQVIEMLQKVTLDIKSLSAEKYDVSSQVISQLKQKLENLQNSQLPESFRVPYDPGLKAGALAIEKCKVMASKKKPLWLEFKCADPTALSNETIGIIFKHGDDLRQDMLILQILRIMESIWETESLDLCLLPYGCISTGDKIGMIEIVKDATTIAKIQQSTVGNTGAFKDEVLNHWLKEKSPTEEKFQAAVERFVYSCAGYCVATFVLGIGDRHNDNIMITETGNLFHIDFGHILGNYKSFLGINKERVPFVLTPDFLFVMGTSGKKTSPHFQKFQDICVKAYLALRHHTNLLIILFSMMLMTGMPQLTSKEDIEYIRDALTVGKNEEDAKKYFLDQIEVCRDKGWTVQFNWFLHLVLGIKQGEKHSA
T2 sequence (P08684 whole entry): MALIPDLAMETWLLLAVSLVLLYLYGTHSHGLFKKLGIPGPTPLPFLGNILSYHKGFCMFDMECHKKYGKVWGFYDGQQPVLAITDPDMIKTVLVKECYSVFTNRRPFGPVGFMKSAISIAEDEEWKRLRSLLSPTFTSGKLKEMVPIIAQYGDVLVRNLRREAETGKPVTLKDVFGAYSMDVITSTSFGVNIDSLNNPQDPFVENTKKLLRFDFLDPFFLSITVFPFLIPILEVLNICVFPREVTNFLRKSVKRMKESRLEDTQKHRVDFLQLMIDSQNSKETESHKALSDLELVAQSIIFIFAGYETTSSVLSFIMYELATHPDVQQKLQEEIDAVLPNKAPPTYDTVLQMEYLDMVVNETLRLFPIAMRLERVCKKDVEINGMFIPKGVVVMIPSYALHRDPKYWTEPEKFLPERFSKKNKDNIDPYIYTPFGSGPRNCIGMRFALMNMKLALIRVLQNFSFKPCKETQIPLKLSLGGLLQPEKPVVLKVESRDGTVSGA
T3 sequence (Q12809 whole entry): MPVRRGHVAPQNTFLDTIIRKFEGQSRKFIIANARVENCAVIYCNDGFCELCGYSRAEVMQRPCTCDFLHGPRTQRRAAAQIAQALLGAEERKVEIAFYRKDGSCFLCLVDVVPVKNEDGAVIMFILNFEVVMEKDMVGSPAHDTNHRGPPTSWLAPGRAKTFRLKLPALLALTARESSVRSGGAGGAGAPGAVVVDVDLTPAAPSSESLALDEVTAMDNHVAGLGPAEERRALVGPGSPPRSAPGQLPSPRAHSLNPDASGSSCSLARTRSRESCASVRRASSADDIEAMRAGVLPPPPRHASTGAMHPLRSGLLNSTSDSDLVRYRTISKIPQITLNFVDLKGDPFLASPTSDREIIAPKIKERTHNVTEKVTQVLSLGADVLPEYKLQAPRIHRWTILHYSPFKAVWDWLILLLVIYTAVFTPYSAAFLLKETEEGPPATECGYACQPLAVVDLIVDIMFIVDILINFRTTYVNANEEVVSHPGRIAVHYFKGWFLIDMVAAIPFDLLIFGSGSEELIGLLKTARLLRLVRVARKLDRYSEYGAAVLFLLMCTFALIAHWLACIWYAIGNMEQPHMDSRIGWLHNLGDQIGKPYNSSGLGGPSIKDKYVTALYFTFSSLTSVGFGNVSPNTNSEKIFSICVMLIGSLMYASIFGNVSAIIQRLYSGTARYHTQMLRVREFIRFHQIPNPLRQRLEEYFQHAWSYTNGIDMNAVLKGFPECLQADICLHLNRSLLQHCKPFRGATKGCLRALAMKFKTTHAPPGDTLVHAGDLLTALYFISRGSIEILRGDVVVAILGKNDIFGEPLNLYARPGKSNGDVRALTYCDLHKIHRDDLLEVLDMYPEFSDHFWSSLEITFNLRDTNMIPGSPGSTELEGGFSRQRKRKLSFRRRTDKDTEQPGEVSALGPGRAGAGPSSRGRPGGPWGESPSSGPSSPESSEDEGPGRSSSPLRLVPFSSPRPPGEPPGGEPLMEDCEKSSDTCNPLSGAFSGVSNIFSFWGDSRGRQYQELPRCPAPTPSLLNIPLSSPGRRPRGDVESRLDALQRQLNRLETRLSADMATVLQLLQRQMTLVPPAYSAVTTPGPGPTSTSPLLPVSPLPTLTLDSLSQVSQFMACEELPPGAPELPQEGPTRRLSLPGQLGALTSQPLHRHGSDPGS

SMILES | inhibition at 10 µM (PI3Kγ [1]) | inhibition at 1 µM (AKT phosphorylation) | MBI (CYP3A4) | hLMS_ox(at 0.5 μM) % [2] | inhibition at 10 min, 1 µM (hERG channel (IKr)) | Ki (PI3Kγ [3])
COc1cc(N2CCc3nc(NC(=O)Nc4ccccc4C(=O)NC(C)(C)C)sc3C2)nc(OC)n1 [Compound I-7] | 93% | 77.6% |  |  |  | 
CCNC(=O)c1ccccc1NC(=O)Nc1nc2c(s1)CN(c1cc(OC)nc(OC)n1)CC2 [Compound I-57] |  |  | (−) (When 3 μmol/L or less, the compound is shown as (−)) | 83.5% | 5.3% | 
COc1cc(N2CCc3nc(NC(=O)Nc4cnccc4OCCC(C)C)sc3C2)nc(OC)n1 [Compound I-97] | ≥ 95% | 80.4% | (−) (When 3 μmol/L or less, the compound is shown as (−)) |  |  | 
COc1cc(N2CCc3nc(NC(=O)Nc4ccccc4C(=O)NC(C)C(F)(F)F)sc3C2)nc(OC)n1 (stereo not shown) [Compound I-136] | ≥ 95% | 84% |  |  |  | 
[2H]C([2H])([2H])C([2H])(NC(=O)c1ccccc1NC(=O)Nc1nc2c(s1)CN(c1cc(OC)nc(OC)n1)CC2)C([2H])([2H])[2H] [Compound I-153] | ≥ 95% | ≥ 95% | (−) (When 3 μmol/L or less, the compound is shown as (−)) | 83% |  | 
[2H]C([2H])([2H])[C@@H](CO)NC(=O)c1ccccc1NC(=O)Nc1nc2c(s1)CN(c1cc(OC)nc(OC)n1)CC2 [Compound I-154] | ≥ 95% | ≥ 95% |  | 98.7% |  | 
COc1cc(N2CCc3nc(NC(=O)Nc4ccccc4C(=O)NC4CCCOC4)sc3C2)nc(OC)n1 (stereo not shown) [Compound I-160] | ≥ 95% | ≥ 95% |  |  |  | 
COC(=O)[C@H](CO)NC(=O)c1nn(C)cc1NC(=O)Nc1nc2c(s1)CN(c1cc(OC)nc(OC)n1)CC2 [Compound I-167] | ≥ 95% | ≥ 95% |  |  |  | 
Cc1nc(NC(=O)Nc2ccccc2OCCC(C)C)sc1-c1csc(S(=O)(=O)N(C)CCN(C)C)c1 [Compound I-192] | 94% |  |  |  |  | 480 nM
COc1cc(N2CCc3nc(NC(=O)Nc4ccccc4C(=O)NN4CCOCC4)sc3C2)nc(OC)n1 [Compound I-193] | 92% | 81% |  | 91.2% |  | 
CS(=O)(=O)c1cncc(N2CCc3nc(NC(=O)Nc4ccccc4C(=O)NCC#N)sc3C2)c1 [Compound I-210] | 91% | 93% | (−) (When 3 μmol/L or less, the compound is shown as (−)) |  |  | 
COc1cncc(-c2cc(NC(=O)Nc3ccccc3OCCC(C)C)nn2C)c1 [Compound I-221] | ≥ 95% |  |  |  |  | 680 nM
